Holding throughout (type): cell-based
Test [1] has as its target T1, human GLP-1 receptor (GLP-1R) (Homo sapiens, UniProt P43220).
T1 construct: expressed in transfected cells
The test is described as follows: cAMP assay, human GLP-1R cells. The method, boiled down:
(§1)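 Peptide-stimulated cAMP measured by two-step HTRF after a 30 min room-temperature incubation with receptor-expressing cells (hGLP-1R, hGIPR at 1×10^5 cells/ml; hGCGR at 2×10^5 cells/ml). Duplicate dilutions; EC50 from 4-parameter logistic fit of % Delta F.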
In general terms: Cyclic AMP is a second messenger, typically raised through Gs and lowered through Gi signalling.

In test [2] the target is T2, human glucose-dependent insulinotropic peptide receptor (GIPR) (Homo sapiens, UniProt P48546).
T2 construct: expressed in transfected cells
T2 sequence (P48546 22-466): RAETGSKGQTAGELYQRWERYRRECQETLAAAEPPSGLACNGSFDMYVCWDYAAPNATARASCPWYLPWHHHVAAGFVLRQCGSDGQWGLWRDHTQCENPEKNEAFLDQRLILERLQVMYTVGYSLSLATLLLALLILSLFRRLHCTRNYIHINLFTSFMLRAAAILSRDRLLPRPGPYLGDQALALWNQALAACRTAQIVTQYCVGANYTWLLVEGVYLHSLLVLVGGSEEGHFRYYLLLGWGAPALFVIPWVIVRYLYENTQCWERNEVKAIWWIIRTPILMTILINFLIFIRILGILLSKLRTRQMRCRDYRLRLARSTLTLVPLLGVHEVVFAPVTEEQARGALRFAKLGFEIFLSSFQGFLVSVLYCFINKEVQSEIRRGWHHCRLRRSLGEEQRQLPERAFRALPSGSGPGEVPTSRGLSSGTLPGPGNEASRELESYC
The test is described as follows: cAMP assay, human GIPR cells. The method, boiled down:
as §1

The target in test [3] is T3, human glucagon receptor (GCGR) (Homo sapiens, UniProt P47871).
T3 construct: expressed in transfected cells
T3 sequence (P47871 26-477): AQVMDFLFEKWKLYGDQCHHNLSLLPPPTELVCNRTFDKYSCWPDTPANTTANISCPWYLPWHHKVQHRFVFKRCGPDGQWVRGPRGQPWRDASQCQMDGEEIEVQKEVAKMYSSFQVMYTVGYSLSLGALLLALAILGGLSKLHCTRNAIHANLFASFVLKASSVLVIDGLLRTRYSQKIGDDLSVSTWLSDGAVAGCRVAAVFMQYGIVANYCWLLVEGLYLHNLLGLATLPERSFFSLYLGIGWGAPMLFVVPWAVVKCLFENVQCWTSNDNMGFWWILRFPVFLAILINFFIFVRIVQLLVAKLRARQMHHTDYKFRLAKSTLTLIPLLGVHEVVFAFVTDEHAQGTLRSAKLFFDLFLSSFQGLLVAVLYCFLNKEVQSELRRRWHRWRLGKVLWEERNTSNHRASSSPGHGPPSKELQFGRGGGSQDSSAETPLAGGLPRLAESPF
Kind of test: cAMP assay, human GCGR cells. The method, boiled down:
as §1

The mark [4] stands for this setting: cAMP assay, first determination (n1), read-out: Primary assay EC50 GLP-1R n1.
Where [5] appears, read: cAMP assay, second determination (n2), read-out: Primary assay EC50 GLP-1R n2.
Where [6] appears, read: mean of n1 and n2, read-out: Mean pM GLP-1R.
The mark [7] stands for this setting: cAMP assay, first determination (n1), read-out: Primary assay EC50 GIP-R (n1).
[8] abbreviates: cAMP assay, second determination (n2), read-out: Primary assay EC50 GIP-R (n2).
Setting [9] is: cAMP assay, first determination (n1), read-out: Primary assay EC50 Gluc-R (n1).
Setting [10] is: cAMP assay, second determination (n2), read-out: Primary assay EC50 Gluc-R (n2).

The structures appear in SMILES notation. Where two headings read alike, the source gives them in different places. Numbered stars: 1 amine (or outer) side, 2 acyl side, 3 side chain; on linkers, the order of the positions; unused ones are H or OH. Square brackets hold non-standard residues; d marks the D form. Side chains are listed from the residue outwards. Peptide text beside a SMILES is read from it. * marks the point of attachment. C18 diacid = O=C(O)CCCCCCCCCCCCCCCCC(=O)*; γGlu = O=C(O)[C@H](CCC(=O)[*:2])N[*:1]; αMeF = C[C@](N)(Cc1ccccc1)C(=O)O; αMeK = C[C@](N)(CCCCN)C(=O)O; Lauroyl = CCCCCCCCCCCC(=O)*; αMeS = C[C@](N)(CO)C(=O)O; AEEA = NCCOCCOCC(=O)O; Aib = CC(C)(N)C(=O)O

T1 sequence (P43220 24-463): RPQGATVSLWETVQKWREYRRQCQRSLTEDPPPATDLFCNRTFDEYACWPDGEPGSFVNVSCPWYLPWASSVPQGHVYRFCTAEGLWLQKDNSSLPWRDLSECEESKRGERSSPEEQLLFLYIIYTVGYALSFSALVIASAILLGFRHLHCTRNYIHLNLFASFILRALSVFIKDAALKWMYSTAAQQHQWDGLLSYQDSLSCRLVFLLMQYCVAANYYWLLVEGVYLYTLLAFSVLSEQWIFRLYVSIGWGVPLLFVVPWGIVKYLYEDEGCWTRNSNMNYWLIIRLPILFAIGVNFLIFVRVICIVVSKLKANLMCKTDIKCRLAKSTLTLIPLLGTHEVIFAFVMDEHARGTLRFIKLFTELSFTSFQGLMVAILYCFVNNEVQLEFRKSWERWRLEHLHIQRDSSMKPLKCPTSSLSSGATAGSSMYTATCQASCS

As to `CCCCCCCCCCCC(=O)N[C@@H](CCC(=O)NCCOCCOCC(=O)NCCOCCOCC(=O)NCCCC[C@H](NC(=O)[C@H](CCC(=O)O)NC(=O)CNC(=O)[C@H](CCC(=O)O)NC(=O)[C@H](CCCCNC(=O)COCCOCCNC(=O)COCCOCCNC(=O)CC[C@H](NC(=O)CCCCCCCCCCC)C(=O)O)NC(=O)[C@H](Cc1ccc(O)cc1)NC(=O)[C@H](CO)NC(=O)[C@](C)(CO)NC(=O)[C@@H](NC(=O)[C@H](CC(=O)O)NC(=O)[C@H](CO)NC(=O)[C@@H](NC(=O)[C@](C)(Cc1ccccc1)NC(=O)[C@H](CO)NC(=O)CNC(=O)[C@H](CCC(=O)O)NC(=O)C(C)(C)NC(=O)[C@@H](N)Cc1c[nH]cn1)[C@@H](C)O)C(C)C)C(=O)N[C@@H](C)C(=O)N[C@@](C)(CCCCN)C(=O)N[C@@H](CCC(=O)O)C(=O)N[C@@H](Cc1ccccc1)C(=O)N[C@H](C(=O)N[C@@H](C)C(=O)N[C@@H](Cc1ccccc1)C(=O)N[C@@H](CCCCNC(=O)COCCOCCNC(=O)COCCOCCNC(=O)CC[C@H](NC(=O)CCCCCCCCCCC)C(=O)O)C(=O)N[C@H](C(=O)N[C@@H](CCC(=O)O)C(=O)NCC(=O)NCC(N)=O)C(C)C)[C@@H](C)CC)C(=O)O` [compound 485] (H-H[Aib]EGS[αMeF]TSDV[αMeS]SYK([AEEA-AEEA-γGlu-Lauroyl])EGEK([AEEA-AEEA-γGlu-Lauroyl])A[αMeK]EFIAFK([AEEA-AEEA-γGlu-Lauroyl])VEGG-NH2), the EC50 came out at 195 pM in test [1] (tris-lipidated peptides, mean of n1 and n2, read-out: Primary assay EC50 Mean pM GLP-1R); 167 pM in test [1] (tris-lipidated peptides, replicate n1, read-out: Primary assay EC50 GLP-1R n1); 224 pM in test [1] (tris-lipidated peptides, replicate n2, read-out: Primary assay EC50 GLP-1R n2); 19.6 nM in test [2] (tris-lipidated peptides, first replicate, read-out: Primary assay EC50 GIP-R (n1)); 19.6 nM in test [3] (tris-lipidated peptides, first replicate, read-out: Primary assay EC50 Gluc-R (n1)).
As to `CC[C@H](C)[C@H](NC(=O)[C@](C)(Cc1ccccc1)NC(=O)[C@H](CCC(=O)O)NC(=O)[C@](C)(CCCCN)NC(=O)[C@H](C)NC(=O)[C@H](C)NC(=O)[C@H](CCC(=O)O)NC(=O)CNC(=O)[C@H](CCCCNC(=O)COCCOCCNC(=O)COCCOCCNC(=O)CC[C@H](NC(=O)CCCCCCCCCCCCCCCCC(=O)O)C(=O)O)NC(=O)[C@H](CC(C)C)NC(=O)[C@](C)(Cc1ccccc1)NC(=O)[C@H](CO)NC(=O)[C@](C)(CO)NC(=O)[C@@H](NC(=O)[C@H](CC(=O)O)NC(=O)[C@H](CO)NC(=O)[C@@H](NC(=O)[C@](C)(Cc1ccccc1)NC(=O)[C@H](CO)NC(=O)CNC(=O)[C@H](CCC(=O)O)NC(=O)C(C)(C)NC(=O)[C@@H](N)Cc1c[nH]cn1)[C@@H](C)O)C(C)C)C(=O)N[C@@H](C)C(=O)N[C@@](C)(Cc1ccccc1)C(=O)N[C@H](C(=O)N[C@H](C(=O)N[C@@](C)(CCCCN)C(=O)NCC(=O)NCC(N)=O)C(C)C)C(C)C` [compound 114] (H-H[Aib]EGS[αMeF]TSDV[αMeS]S[αMeF]LK([AEEA-AEEA-γGlu-C18 diacid])GEAA[αMeK]E[αMeF]IA[αMeF]VV[αMeK]GG-NH2; N-terminus assumed), the EC50 in test [1] (setting [4]) was 550 pM; in test [1] (setting [5]), 458 pM; in test [1] (setting [6]), 503 pM; in test [2] (setting [7]), at least 25 nM; in test [2] (setting [8]) it was at least 25.4 nM; in test [3] (setting [9]), at least 25 nM. The EC50 in test [3] (setting [10]) is at least 25.4 nM.
As to `CCCCCCCCCCCCCCCCCC(=O)NCCCCCC(=O)NCCCC[C@H](NC(=O)[C@@H](NC(=O)[C@@H](NC(=O)[C@](C)(Cc1ccccc1)NC(=O)[C@H](C)NC(=O)[C@@H](NC(=O)[C@](C)(Cc1ccccc1)NC(=O)[C@H](CCC(=O)O)NC(=O)[C@](C)(CCCCN)NC(=O)[C@H](C)NC(=O)[C@H](C)NC(=O)[C@H](CCC(=O)O)NC(=O)CNC(=O)[C@H](CCC(=O)O)NC(=O)[C@H](CC(C)C)NC(=O)[C@](C)(Cc1ccccc1)NC(=O)[C@H](CO)NC(=O)[C@](C)(CO)NC(=O)[C@@H](NC(=O)[C@H](CC(=O)O)NC(=O)[C@H](CO)NC(=O)[C@@H](NC(=O)[C@](C)(Cc1ccccc1)NC(=O)[C@H](CO)NC(=O)CNC(=O)[C@H](CCC(=O)O)NC(=O)C(C)(C)NC(=O)[C@@H](N)Cc1c[nH]cn1)[C@@H](C)O)C(C)C)[C@@H](C)CC)C(C)C)C(C)C)C(=O)NCC(=O)NCC(N)=O` [compound 185], the EC50 was 380 pM in test [1] (setting [4]); 120 pM in test [1] (setting [5]); 251 pM in test [1] (setting [6]); at least 28 nM in test [2] (setting [7]); at least 28 nM in test [2] (setting [8]); at least 28 nM in test [3] (setting [9]). Moreover, the EC50 in test [3] (setting [10]) is at least 28 nM.
